Source: patent US20230094076A1, “COMBINATION THERAPY” (GlaxoSmithKline Intellectual Property Development Limited, priority 2016, published 2023)

Target: PRMT3 (Homo sapiens, UniProt O60678)
Test: PRMT family radioactive assay
Type: biochemical

Chain of PRMT3 (O60678 whole entry): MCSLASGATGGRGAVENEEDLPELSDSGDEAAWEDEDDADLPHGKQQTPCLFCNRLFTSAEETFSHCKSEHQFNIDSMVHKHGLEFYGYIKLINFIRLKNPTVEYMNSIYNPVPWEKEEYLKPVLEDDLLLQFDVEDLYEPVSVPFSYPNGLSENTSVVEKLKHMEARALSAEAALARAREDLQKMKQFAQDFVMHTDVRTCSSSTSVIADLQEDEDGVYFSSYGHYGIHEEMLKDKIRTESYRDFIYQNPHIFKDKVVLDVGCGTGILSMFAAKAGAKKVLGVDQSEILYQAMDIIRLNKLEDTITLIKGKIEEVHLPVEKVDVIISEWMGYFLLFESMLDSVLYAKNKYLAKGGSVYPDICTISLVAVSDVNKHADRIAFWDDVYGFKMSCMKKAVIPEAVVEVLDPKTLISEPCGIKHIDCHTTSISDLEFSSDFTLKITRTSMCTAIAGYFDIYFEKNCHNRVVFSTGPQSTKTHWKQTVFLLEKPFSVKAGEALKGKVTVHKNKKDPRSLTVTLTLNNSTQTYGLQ

For `CCOCC1(COCC)CCC(c2n[nH]cc2CN(C)CCNC)CC1` [Compound A], the inhibition of activity (60 minute SAM:Enzyme:Compound A preincubation) was “inhibited the activity” and the “time dependence of inhibition” value (increasing preincubation times) was “no time dependent behavior”.
